Experimental data from patent US9079901B2, “Fused heterocyclic compounds as ion channel modulators” (Gilead Sciences, Inc., priority 2010, dated 2015).

Target: wild-type human cardiac sodium channel, hNav1.5 (late sodium current) in HEK293 cells (Homo sapiens, UniProt Q14524)
Assay: Late INa screening assay (automated whole-cell patch clamp, PatchXpress)
Type: cell-based
Details: HEK293, compound at 1 μM; late INa generated with 10 μM Tefluthrin (or 50 nM ATX II); HEK293 hNav1.5; read-out: Late INa 1 μM (percent block of late INa)
Outline: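 hNav1.5-expressing HEK293 cells (no β subunits) were recorded by automated whole-cell patch clamp at 24–27 °C with CsF-based internal solution. Late current was induced by 10 μM tefluthrin (or 50 nM ATX II) and evoked by 250 ms steps from −120 to −20 mV at 0.1 Hz. Compounds, typically 10 μM, were applied in three additions over 7–8 min; mean current at 225–250 ms, normalised to 0Na baseline, gave percent block.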

wild-type human cardiac sodium channel, hNav1.5 (late sodium current) in HEK293 cells, sequence (Q14524 whole entry): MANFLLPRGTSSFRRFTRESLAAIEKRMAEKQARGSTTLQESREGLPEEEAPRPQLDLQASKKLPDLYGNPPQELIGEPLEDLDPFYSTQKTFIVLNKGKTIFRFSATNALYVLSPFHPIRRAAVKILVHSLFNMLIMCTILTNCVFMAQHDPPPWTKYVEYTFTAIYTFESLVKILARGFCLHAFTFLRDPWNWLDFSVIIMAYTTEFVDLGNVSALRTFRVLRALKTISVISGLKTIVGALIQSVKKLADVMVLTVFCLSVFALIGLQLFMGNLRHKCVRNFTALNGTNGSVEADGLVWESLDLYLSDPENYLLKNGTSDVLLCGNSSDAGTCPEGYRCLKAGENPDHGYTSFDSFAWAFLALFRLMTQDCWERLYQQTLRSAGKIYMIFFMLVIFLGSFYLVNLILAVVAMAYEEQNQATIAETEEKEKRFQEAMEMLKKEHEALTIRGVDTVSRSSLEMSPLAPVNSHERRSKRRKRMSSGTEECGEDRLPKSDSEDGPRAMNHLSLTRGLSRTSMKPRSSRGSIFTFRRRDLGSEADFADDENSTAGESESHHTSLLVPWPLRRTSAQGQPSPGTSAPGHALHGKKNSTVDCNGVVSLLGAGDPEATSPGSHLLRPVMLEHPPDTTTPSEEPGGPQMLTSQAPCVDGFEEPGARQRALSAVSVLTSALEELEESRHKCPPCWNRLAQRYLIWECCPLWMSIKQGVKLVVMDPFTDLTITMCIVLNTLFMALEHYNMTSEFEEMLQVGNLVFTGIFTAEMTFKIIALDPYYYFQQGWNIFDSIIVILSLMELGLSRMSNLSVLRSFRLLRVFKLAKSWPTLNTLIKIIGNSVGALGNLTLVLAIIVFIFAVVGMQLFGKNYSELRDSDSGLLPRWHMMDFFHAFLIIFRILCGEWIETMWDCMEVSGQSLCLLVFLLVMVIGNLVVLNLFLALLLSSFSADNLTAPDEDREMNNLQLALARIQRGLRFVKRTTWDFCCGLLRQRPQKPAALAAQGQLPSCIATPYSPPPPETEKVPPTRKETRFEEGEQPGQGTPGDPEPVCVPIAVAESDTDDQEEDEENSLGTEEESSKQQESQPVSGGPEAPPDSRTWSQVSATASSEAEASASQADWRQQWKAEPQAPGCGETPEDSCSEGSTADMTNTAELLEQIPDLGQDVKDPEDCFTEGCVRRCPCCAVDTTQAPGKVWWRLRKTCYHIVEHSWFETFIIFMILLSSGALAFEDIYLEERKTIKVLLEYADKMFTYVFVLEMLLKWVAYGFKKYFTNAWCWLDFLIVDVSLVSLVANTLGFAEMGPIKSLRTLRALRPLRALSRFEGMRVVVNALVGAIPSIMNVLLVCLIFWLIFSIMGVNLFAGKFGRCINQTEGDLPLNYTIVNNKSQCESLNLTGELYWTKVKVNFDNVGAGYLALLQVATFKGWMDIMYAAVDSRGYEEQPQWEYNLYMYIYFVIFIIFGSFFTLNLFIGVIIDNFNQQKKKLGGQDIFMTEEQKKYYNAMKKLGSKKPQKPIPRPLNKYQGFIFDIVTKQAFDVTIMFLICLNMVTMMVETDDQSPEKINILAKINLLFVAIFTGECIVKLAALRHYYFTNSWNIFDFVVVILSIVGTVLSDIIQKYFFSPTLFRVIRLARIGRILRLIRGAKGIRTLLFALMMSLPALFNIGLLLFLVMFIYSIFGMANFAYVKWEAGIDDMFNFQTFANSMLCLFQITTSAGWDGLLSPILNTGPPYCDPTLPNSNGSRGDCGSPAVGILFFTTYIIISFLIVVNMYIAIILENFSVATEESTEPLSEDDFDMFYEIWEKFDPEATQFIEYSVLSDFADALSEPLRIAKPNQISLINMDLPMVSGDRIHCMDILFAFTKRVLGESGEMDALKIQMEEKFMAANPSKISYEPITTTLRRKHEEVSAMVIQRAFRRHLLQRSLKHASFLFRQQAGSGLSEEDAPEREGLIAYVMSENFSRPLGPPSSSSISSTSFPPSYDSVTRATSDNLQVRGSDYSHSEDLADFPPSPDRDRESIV

| SMILES | inhibition at 1 µM |
| --- | --- |
| Cc1noc(C)c1Cn1nc2ccc(-c3ccc(OC(F)(F)F)cc3)cn2c1=O [compound 6, 2-((3,5-dimethylisoxazol-4-yl)methyl)-6-(4-(trifluoromethoxy)phenyl)-[1,2,4]triazolo[4,3-a]pyridin-3(2H)-one] | 15.2% |
| O=c1n(CCc2c(F)cccc2F)nc2ccc(-c3ccc(OC(F)(F)F)cc3)cn12 [compound 63, 2-(2,6-difluorophenethyl)-6-(4-(trifluoromethoxy)phenyl)-[1,2,4]triazolo[4,3-a]pyridin-3(2H)-one] | 46.9% |
| C[Si](C)(C)c1ccc(-c2ccc3nn(CCOc4ncccn4)c(=O)n3c2)cc1 [compound 123, 2-(2-(pyrimidin-2-yloxy)ethyl)-6-(4-(trimethylsilyl)phenyl)-[1,2,4]triazolo[4,3-a]pyridin-3(2H)-one] | 38% |
| Cc1cccnc1-c1cc(Cn2nc3ccc(-c4ccc(OC(F)(F)F)cc4)cn3c2=O)no1 [compound 145, 2-((5-(3-methylpyridin-2-yl)isoxazol-3-yl)methyl)-6-(4-(trifluoromethoxy)phenyl)-[1,2,4]triazolo[4,3-a]pyridin-3(2H)-one] | 37.7% |
| O=c1n(CCc2ccc(F)cc2)nc2ccc(-c3ccc(OC(F)(F)F)cc3)cn12 [compound 59, 2-(4-fluorophenethyl)-6-(4-(trifluoromethoxy)phenyl)-[1,2,4]triazolo[4,3-a]pyridin-3(2H)-one] | 27.1% |
| CC(=O)OCc1nc(Cn2nc3ccc(-c4ccc(OC(F)(F)F)cc4)cn3c2=O)no1 [compound 94, (3-((3-oxo-6-(4-(trifluoromethoxy)phenyl)-[1,2,4]triazolo[4,3-a]pyridin-2(3H)-yl)methyl)-1,2,4-oxadiazol-5-yl)methyl acetate] | 28.2% |
| COc1ccccc1OCCn1nc2ccc(-c3ccc(OC(F)(F)F)cc3)cn2c1=O [compound 69, 2-(2-(2-methoxyphenoxy)ethyl)-6-(4-(trifluoromethoxy)phenyl)-[1,2,4]triazolo[4,3-a]pyridin-3(2H)-one] | 32.5% |
| O=C1c2ccccc2C(=O)N1Cc1nc(Cn2nc3ccc(-c4ccc(OC(F)(F)F)cc4)cn3c2=O)no1 [compound 136, 2-((3-((3-oxo-6-(4-(trifluoromethoxy)phenyl)-[1,2,4]triazolo[4,3-a]pyridin-2(3H)-yl)methyl)-1,2,4-oxadiazol-5-yl)methyl)isoindoline-1,3-dione] | 25.2% |
| Cc1noc(Cn2nc3ccc(-c4ccc(OC(F)(F)F)cc4)cn3c2=O)n1 [compound 1, 2-((3-methyl-1,2,4-oxadiazol-5-yl)methyl)-6-(4-(trifluoromethoxy)phenyl)-[1,2,4]triazolo[4,3-a]pyridin-3(2H)-one] | 27.5% |
| O=c1n(CCOc2nccc(Oc3ccc(Cl)cc3)n2)nc2ccc(-c3ccc(OC(F)(F)F)cc3)cn12 [compound 132, 2-(2-(4-(4-chlorophenoxy)pyrimidin-2-yloxy)ethyl)-6-(4-(trifluoromethoxy)phenyl)-[1,2,4]triazolo[4,3-a]pyridin-3(2H)-one] | 11% |
| CSc1ccnc(OCCn2nc3ccc(-c4ccc(OC(F)(F)F)cc4)cn3c2=O)n1 [compound 159, 2-(2-(4-(methylthio)pyrimidin-2-yloxy)ethyl)-6-(4-(trifluoromethoxy)phenyl)-[1,2,4]triazolo[4,3-a]pyridin-3(2H)-one] | 49.6% |
| O=c1n(Cc2nc(-c3ccccc3Cl)no2)nc2ccc(-c3ccc(OC(F)(F)F)cc3)cn12 [compound 33, 2-((3-(2-chlorophenyl)-1,2,4-oxadiazol-5-yl)methyl)-6-(4-(trifluoromethoxy)phenyl)-[1,2,4]triazolo[4,3-a]pyridin-3(2H)-one] | 20.5% |
| Cc1nnc(Cn2nc3ccc(-c4ccc(OC(F)(F)F)cc4)cn3c2=O)o1 [compound 18, 2-((5-methyl-1,3,4-oxadiazol-2-yl)methyl)-6-(4-(trifluoromethoxy)phenyl)-[1,2,4]triazolo[4,3-a]pyridin-3(2H)-one] | 11.5% |
| O=c1n(C/C=C/c2ccccc2)nc2ccc(-c3ccc(OC(F)(F)F)cc3)cn12 [compound 151, 2-cinnamyl-6-(4-(trifluoromethoxy)phenyl)-[1,2,4]triazolo[4,3-a]pyridin-3(2H)-one] | 16.5% |
| O=c1n(CCOc2cccnn2)nc2ccc(-c3ccc(OC(F)(F)F)cc3)cn12 [compound 81, 2-(2-(pyridazin-3-yloxy)ethyl)-6-(4-(trifluoromethoxy)phenyl)-[1,2,4]triazolo[4,3-a]pyridin-3(2H)-one] | 11% |
| COc1cc(F)ccc1OCC(Cn1nc2ccc(-c3ccc(OC(F)(F)F)cc3)cn2c1=O)OC (centres unmarked) [compound 104, 2-(3-(4-fluoro-2-methoxyphenoxy)-2-methoxypropyl)-6-(4-(trifluoromethoxy)phenyl)-[1,2,4]triazolo[4,3-a]pyridin-3(2H)-one] | 41.5% |

| SMILES | inhibition at 1 µM |
| --- | --- |
| O=c1n(CCOc2nccc(OCC3CC3)n2)nc2ccc(-c3ccc(OC(F)(F)F)cc3)cn12 [compound 179, 2-(2-(4-(cyclopropylmethoxy)pyrimidin-2-yloxy)ethyl)-6-(4-(trifluoromethoxy)phenyl)-[1,2,4]triazolo[4,3-a]pyridin-3(2H)-one] | 30.3% |
| N#Cc1ccccc1OCC(O)Cn1nc2ccc(-c3ccc(OC(F)(F)F)cc3)cn2c1=O (centres unmarked) [compound 101, 2-(2-hydroxy-3-(3-oxo-6-(4-(trifluoromethoxy)phenyl)-[1,2,4]triazolo[4,3-a]pyridin-2(3H)-yl)propoxy)benzonitrile] | 11.7% |
| CCOc1ccccc1OCc1nc(Cn2nc3ccc(-c4ccc(OC(F)(F)F)cc4)cn3c2=O)no1 [compound 176, 2-((5-((2-ethoxyphenoxy)methyl)-1,2,4-oxadiazol-3-yl)methyl)-6-(4-(trifluoromethoxy)phenyl)-[1,2,4]triazolo[4,3-a]pyridin-3(2H)-one] | 25.5% |
| O=c1n(CCc2cccnc2)nc2ccc(-c3ccc(OC(F)(F)F)cc3)cn12 [compound 73, 2-(2-(pyridin-3-yl)ethyl)-6-(4-(trifluoromethoxy)phenyl)-[1,2,4]triazolo[4,3-a]pyridin-3(2H)-one] | 10.4% |
| O=c1[nH]nc2ccc(-c3ccc(Oc4ccc(F)cc4)cc3)cn12 [compound 143, 6-(4-(4-fluorophenoxy)phenyl)-[1,2,4]triazolo[4,3-a]pyridin-3(2H)-one] | 56.6% |
| Cc1ccc(OCCn2nc3ccc(-c4ccc(OC(F)(F)F)cc4)cn3c2=O)cc1 [compound 75, 2-(2-(p-tolyloxy)ethyl)-6-(4-(trifluoromethoxy)phenyl)-[1,2,4]triazolo[4,3-a]pyridin-3(2H)-one] | 25.7% |
| Cc1noc(Cn2nc3ccc(-c4ccc(F)c(F)c4)cn3c2=O)n1 [compound 150, 6-(3,4-difluorophenyl)-2-((3-methyl-1,2,4-oxadiazol-5-yl)methyl)-[1,2,4]triazolo[4,3-a]pyridin-3(2H)-one] | 12.8% |
| Cc1ncc(Cn2nc3ccc(-c4ccc(C(F)(F)F)cc4)cn3c2=O)o1 [compound 197, 2-((2-methyloxazol-5-yl)methyl)-6-(4-(trifluoromethyl)phenyl)-[1,2,4]triazolo[4,3-a]pyridin-3(2H)-one] | 19.7% |
| Cc1cnc(Cn2nc3ccc(-c4ccc(C(F)(F)F)cc4)cn3c2=O)o1 [compound 172, 2-((5-methyloxazol-2-yl)methyl)-6-(4-(trifluoromethyl)phenyl)-[1,2,4]triazolo[4,3-a]pyridin-3(2H)-one] | 24.8% |
| O=c1n(CCOc2cccc(C(F)(F)F)n2)nc2ccc(-c3ccc(OC(F)(F)F)cc3)cn12 [compound 65, 6-(4-(trifluoromethoxy)phenyl)-2-(2-(6-(trifluoromethyl)pyridin-2-yloxy)ethyl)-[1,2,4]triazolo[4,3-a]pyridin-3(2H)-one] | 21.1% |
| O=c1n(CCc2ncccc2Br)nc2ccc(-c3ccc(OC(F)(F)F)cc3)cn12 [compound 56, 2-(2-(3-bromopyridin-2-yl)ethyl)-6-(4-(trifluoromethoxy)phenyl)-[1,2,4]triazolo[4,3-a]pyridin-3(2H)-one] | 39.8% |
| COc1ccccc1OCCCn1nc2ccc(-c3ccc(OC(F)(F)F)cc3)cn2c1=O [compound 37, 2-(3-(2-methoxyphenoxy)propyl)-6-(4-(trifluoromethoxy)phenyl)-[1,2,4]triazolo[4,3-a]pyridin-3(2H)-one] | 34.5% |
| O=c1n(CCCc2ccc(F)c(Br)c2)nc2ccc(-c3ccc(OC(F)(F)F)cc3)cn12 [compound 64, 2-(3-(3-bromo-4-fluorophenyl)propyl)-6-(4-(trifluoromethoxy)phenyl)-[1,2,4]triazolo[4,3-a]pyridin-3(2H)-one] | 16.7% |
| COC[C@H](Cn1nc2ccc(-c3ccc(OC(F)(F)F)cc3)cn2c1=O)Oc1ncccc1C(F)(F)F [compound 91, (S)-2-(3-methoxy-2-(3-(trifluoromethyl)pyridin-2-yloxy)propyl)-6-(4-(trifluoromethoxy)phenyl)-[1,2,4]triazolo[4,3-a]pyridin-3(2H)-one] | 58.3% |
| Cc1noc(Cn2nc3ccc(-c4ccc(C(=O)c5ccccc5)cc4)cn3c2=O)n1 [compound 131, 6-(4-benzoylphenyl)-2-((3-methyl-1,2,4-oxadiazol-5-yl)methyl)-[1,2,4]triazolo[4,3-a]pyridin-3(2H)-one] | 34.7% |
| Cc1nc(-c2cccc(Cn3nc4ccc(-c5ccc(OC(F)(F)F)cc5)cn4c3=O)c2)no1 [compound 8, 2-(3-(5-methyl-1,2,4-oxadiazol-3-yl)benzyl)-6-(4-(trifluoromethoxy)phenyl)-[1,2,4]triazolo[4,3-a]pyridin-3(2H)-one] | 16.3% |
